# Measurements published in patent US10301323B2, “Histone deacetylase inhibitors” (BIOMARIN PHARMACEUTICAL INC., priority 2011, dated 2019).
# Where two headings read alike, the source gives them in different places.
# Columns and labels:
# HCT116 cells = assay: Cell proliferation assay; type: cell-based; settings: Homo sapiens, HCT-116, 72 h, read-out: Hct-116 (anti-proliferation IC50)
# Protocol: HCT116 cells (5000 cells/well) in 80 μL McCoy's 5 A medium containing 10% v/v FBS, 1% v/v penicillin/streptomycin and 1% v/v L-glutamine were incubated in 96-well plates with compounds at various concentrations for 72 h at 37° C. in a 5% CO2 atmosphere. The compound dilutions were made in 100% DMSO followed by parallel dilutions in media. The final concentration of DMSO in each well was 0.05%. After 72 h, 20 μL of Cell titer 96 aqueous one solution (Promega Corporation, Madison, Wis.) were added to the cells and the plate was incubated at 37° C. for another 4 h. The absorbance at 490 nm was then recorded on a 96-well plate reader (Spectramax M2, Molecular Devices, Sunnyvale, Calif.). Data analysis was performed in Microsoft Excel (Microsoft Corp, Redmond, Wash.).
# C57BL/6J male mice = assay: Long term memory for object recognition; type: in vivo; settings: 3, 10, 30 mg/kg subcutaneous; object recognition memory task
# Protocol: C57BL/6J male mice were handled 1-2 min for 5 days and were habituated to the experimental apparatus 5 min a day for 4 consecutive days in the absence of objects. […] 24-h later mice were tested for memory retention (5 min) using the object recognition memory task (ORM), in which a familiar object was replaced with a novel one. All training and testing trials were videotaped and analyzed by individuals blind to the treatment condition and the genotype of subjects. A mouse was scored as exploring an object when its head was oriented toward the object within a distance of 1 cm or when the nose was touching the object. The relative exploration time was recorded and expressed by a discrimination index [DI=(tnovel−tfamiliar)/(tnovel+tfamiliar)×100].
# [1] = system: GM 15850 (lymphoblastoid cells line) cells; assay: In-cell deacetylase inhibition assay (DAC assay); type: cell-based; settings: Homo sapiens, GM15850, GM 15850 cells, 4 h incubation
# Protocol: Compound dilutions were made in 100% DMSO followed by parallel dilution in media with 2% DMSO. 10 μl of the compound dilutions were added to the cells to achieve the desired concentrations. The final concentration of DMSO in each well was 0.2%. The cells were incubated for 4 h at 37° C. with 5% CO2. After incubation, the cells were centrifuged down and the supernatant was removed. […] The reaction was stopped after 30 min incubation by addition of 50 μL developer (6 mg/mL trypsin in HDAC assay buffer). The reaction was allowed to develop for 30 min at room temperature and the fluorescence signal was detected using a fluorometer (Spectramax M2, Molecular Devices, Sunnyvale, Calif.) with excitation and emission wavelengths of 360 nm and 470 nm respectively. The data was fitted to a sigmoidal dose response equation with variable slope in GraphPad Prism 5.0 (GraphPad Software, La Jolla, Calif.) to determine IC50. Bottom and top of the curve were fixed to the average fluorescence response of control wells with no cells and cells but no compound respectively.
# [2] = Compound stability in hepatocytes; settings: human hepatocytes, 5 μM compound
# Protocol: To assess the stability and metabolism of RGFP compounds in hepatocytes. This assay was designed to evaluate the metabolism of RGFP compounds, following their incubation with human, monkey, dog and rat hepatocytes by monitoring either parent drug disappearance or metabolite appearance using HPLC.
# Procedure: • Turn on the water-bath heater to 37° C. • Take out the KHB buffer and make sure it is at room temp before use • Prepare 2.5 mM concentration of RGFP compound in DMSO stock • Add 10 μL of above DMSO stock to 2490 μL KHB buffer; final concentration of RGFP compound will be 10 μM • Pre-warm 45 ml InVitro HT Medium to 37° C. in a sterile 50 ml conical tube • Add 1.0 mL Torpedo Antibiotic Mix per 45 mL InVitro HT medium • Transfer 13 mL of warm HT medium with Antibiotic Mix into a 15 mL conical tube. • Carefully remove the hepatocyte vials from liquid nitrogen (liquid phase). • Immediately immerse the vial into a 37° C. water bath. Shake gently until the ice melts entirely. […] Loosen the cell pellet by gently swirling the centrifuge tube • Transfer 100 μL of above solution to a different tube and add 900 μL of KHB buffer to count the cells • Determine the total cell count and the number of viable cells using the Trypan Blue exclusion method • Once you obtain the cell count, multiply the number by 10 (attributing to the dilution factor) • Now add required volume of KHB buffer to the tube containing hepatocytes such that the final count will be 2 million cells/mL • Dispense 50 μL of 2 million cells/ml to a 96 well plate and then add 50 μl of DMSO stock to respective wells (such that, the concentration of RGFP compounds is 5 μM and number of cells are 100000 in each well) • Place the plates on a shaker in a 37° C. incubator with 5% CO2 • Separate plates for each time point are advisable (Time points: 0 h, 1 h, 2 h, and 6 h) • After each time point, add 100 μL of quenching solution. • Quenching solution is an acetonitrile solution containing RGFP531 (10 μM) internal standard, 0.1% formic acid and phenylglyoxol (400 μM). The formic acid and phenylglyoxal is used for the identification and quantification of OPD as mentioned above. • Pipette up and down a few times to ensure a complete stop of reaction • Transfer all the solution into a 1.5 ml tube, vortex thoroughly, and centrifuge at 14000 RPM at 4° C. for 5 minutes to precipitate cell debris
# Transfer the 150 μL of supernatant to vials for analysis using HPLC
# [3] = Brain penetration studies; settings: Table 4; mice dosed s.c. at 5 mg/kg or 50 mg/kg, or i.v. at 5 mg/kg; Cmax(brain)/Cmax(plasma)
# Protocol: Test compounds were prepared at either 0.5 mg/ml or 5 mg/ml in 30% hydroxypropyl-β-cyclodextrin, 100 mM sodium acetate pH 5.5, 5% DMSO. C57/BL6/J mice were dosed s.c. at 5 mg/kg or 50 mg/kg, or i.v. at 5 mg/kg. Animals were euthanized at pre-dose, 5, 15, 30 min, 1, 2 and 4 hours post-dose and plasma and brain obtained. Three animals per dose per time points were used. The levels of compound in the plasma and brain were determined by standard LC/MS/MS methods. Brain/plasma ratio (BPR) was calculated as the ratio of the Cmax(brain)/Cmax(plasma).
# [4] = system: frataxin (FXN) mRNA in primary lymphocytes from Friedreich's ataxia patient donors; assay: Effect of HDAC inhibitors on frataxin (FXN) mRNA expression; type: cell-based, human; settings: Table 4, concentration required for a 2-fold increase in FXN mRNA, 48 hours
# Protocol: Blood is collected from Friedreich's ataxia patient donors into tubes containing the anti-coagulant EDTA. Primary lymphocytes are isolated using Lymphocyte Separation Medium (MP Biomedicals, Solon, Ohio) following the manufacturer's instructions and including a few modifications made by Repligen. After a final wash in Phosphate Buffered Saline (PBS), the cells are distributed into a 6-well cell culture plate in cell growth medium. The test HDAC inhibitor compound is added to cells in a dose escalating manner (usually concentrations range from 1 to 10 μM) and 0.1% DMSO is added to one well of cells as a no treatment control. Cells are incubated for 48 hours at 37° C. in a CO2 incubator; cell counts are taken using a Countess automated cell counter (Invitrogen, Carlsbad, Calif.). Equivalent numbers of cells for all treatment conditions are pelleted by centrifugation and resuspended in cell lysis buffer. Total RNA is isolated from approximately 1×10^6 primary lymphocytes using a RNeasy Mini Kit (Qiagen, Valencia, Calif.), following the manufacturer's instructions and including an optional on-column DNAse digestion step. […] The RNA yield and concentration is determined using a Nanodrop spectrophotometer (Thermo Fisher Scientific, Waltham, Mass.) and depending on the RNA concentration, one of two protocols is used to measure frataxin (FXN) transcript levels. […] In both methods each RNA sample is analyzed in triplicate (preferably) or duplicate (minimally) using a one-step qRT-PCR master mix that contains all the components necessary for cDNA synthesis and PCR amplification in a single, continuous reaction. […] The amount of FXN (or GAPDH) in the sample is determined as the relative quantity to the calibrator where the calibrator sample is assigned an arbitrary quantity of 1. The following equation is used: Relative quantity to the calibrator=2^−ΔCt where ΔCt=(Ct_gene)unknown−(Ct_gene)calibrator, gene is either FXN or GAPDH, calibrator is a DMSO control sample, and unknown is a HDACi treated sample. The relative quantity of FXN is normalized to cell number and RNA input. […]
SMILES,"IC50 ([1]; Table 4, read-out: DAC IC50) [µM]",% left 6h Hum [2],BPR [3],other results
Cn1cnc(/C=C/C(=O)Nc2ccccc2N)c1 [A12],,,,IC50 (HCT116 cells): > 20 µM
"Nc1ccccc1NC(=O)/C=C/c1cnn(CCOc2cc(F)cc(Cl)c2)c1 [B5, (E)-N-(2-aminophenyl)-3-(1-(2-(3-chloro-5-fluorophenoxy)ethyl)-1H-pyrazol-4-yl)acrylamide]",,,,IC50 (HCT116 cells): 10 to 20 µM
"Nc1cc(F)ccc1NC(=O)/C=C/c1cnn(C/C=C/c2ccccc2)c1 [D2, (E)-N-(2-amino-4-fluorophenyl)-3-(1-cinnamyl-1H-pyrazol-4-yl)acrylamide]",,,,dose dependence of the effect on long-term memory (C57BL/6J male mice): no effect of dose
"Nc1ccccc1NC(=O)/C=C/c1csc(C/C=C/c2ccccc2)n1 [E2, (E)-N-(2-aminophenyl)-3-(2-cinnamylthiazol-4-yl)acrylamide]",,,,IC50 ([1]; read-out: 850 DAC (in-cell deacetylase inhibition IC50)): 10 to 20 µM; IC50 (HCT116 cells): > 20 µM
Nc1ccccc1NC(=O)c1ccc(C=C2CCN(Cc3cccnc3)CC2)c(Cl)c1 [F7],5 to 10,,,
CN1C2CCC1CC(=Cc1ccc(C(=O)Nc3ccccc3N)cc1Cl)C2 [F8],< 1,,,
Nc1ccccc1NC(=O)c1ccc(C=C2COC2)cc1F [F9],< 1,IA (IA<10%),,
Nc1ccccc1NC(=O)c1ccc(C=C2CN(CC3CC3)C2)c(Cl)c1 [F10],5 to 10,,A (A is greater than 1),
Nc1ccccc1NC(=O)c1ccc(C=C2COC2)c(Cl)c1 [F11],< 1,,A (A is greater than 1),
Nc1ccccc1NC(=O)c1ccc(C=C2CN(CC3CC3)C2)cc1 [F12],< 1,A (50%<A),A (A is greater than 1),Fxn >2X (uM) [4]: A (A if less than 5 μM)
Nc1ccccc1NC(=O)c1ccc(C=C2CCN(CC3CC3)CC2)cc1 [F13],,,A (A is greater than 1),
CC(C)(C)CN1CCC(=Cc2ccc(C(=O)Nc3ccccc3N)cc2)CC1 [F14],1 to 5,,A (A is greater than 1),Fxn >2X (uM) [4]: A (A if less than 5 μM)
CC(C)(O)CN1CCC(=Cc2ccc(C(=O)Nc3ccccc3N)cc2)CC1 [F15],1 to 5,A (50%<A),A (A is greater than 1),Fxn >2X (uM) [4]: A (A if less than 5 μM)
CC(C)(O)CN1CC(=Cc2ccc(C(=O)Nc3ccccc3N)cc2)C1 [F19],,A (50%<A),,
Nc1cc(F)ccc1NC(=O)c1ccc(C=C2CN(CC3CC3)C2)cc1 [F20],,A (50%<A),,
"Cc1ccc(C(=O)NCCCCCC(=O)Nc2ccc(F)cc2N)cc1 [RGFP 136, reference compound]",,,,dose dependence of the effect on long-term memory (C57BL/6J male mice): Dose dependent effects
